Active and inactive are the calls of the source. The rule behind the calls is not given here.
What was measured:
Coagulation factor X [1] = target: T1, Coagulation factor X (Homo sapiens, UniProt P00742); experiment: Inhibition of human F10a using chromogenic substrate S-2765 preincubated for 10 mins at 0.1 uM by spectrophotometry
Plasma = experiment: Anticoagulant activity in human plasma assessed as concentration required to double prothrombin time; type: functional
Prothrombin = Prothrombin (Homo sapiens, UniProt P00734); experiment: Inhibition of thrombin (unknown origin) using chromogenic substrate S-2238 by spectrophotometry
Coagulation factor X [2] = target: T1, Coagulation factor X; experiment: Inhibition of human F10a using chromogenic substrate S-2765 preincubated for 10 mins by spectrophotometry
Homo sapiens [3] = species: Homo sapiens; experiment: Selectivity ratio of IC50 for trypsin (unknown origin) to IC50 for human F10a
Homo sapiens [4] = species: Homo sapiens; experiment: Selectivity ratio of IC50 for thrombin (unknown origin) to IC50 for human F10a

T1 sequence (P00742 41-179 limits assumed): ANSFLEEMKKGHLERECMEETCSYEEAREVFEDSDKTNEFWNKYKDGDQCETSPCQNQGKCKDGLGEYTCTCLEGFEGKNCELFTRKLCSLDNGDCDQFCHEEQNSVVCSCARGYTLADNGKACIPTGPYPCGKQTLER
T1 sequence (P00742 235-488 limits assumed): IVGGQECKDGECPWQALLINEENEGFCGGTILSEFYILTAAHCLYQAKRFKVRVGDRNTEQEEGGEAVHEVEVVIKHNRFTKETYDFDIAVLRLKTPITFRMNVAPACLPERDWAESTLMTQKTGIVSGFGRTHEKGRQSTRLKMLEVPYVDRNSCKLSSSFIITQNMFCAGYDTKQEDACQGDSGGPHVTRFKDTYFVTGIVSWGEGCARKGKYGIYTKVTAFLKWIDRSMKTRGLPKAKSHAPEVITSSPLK

Cc1nc2onc(-c3ccc(Cl)cc3)c2c(=O)n1-c1ccc(N2CCOCC2=O)cc1
inhibition (Coagulation factor X [1]): 41%

O=C1COCCN1c1ccc(-n2cnc3onc(-c4ccc(Cl)cc4)c3c2=O)cc1
inhibition (Coagulation factor X [1]): 56%

CCc1nc2onc(-c3ccc(OC)cc3)c2c(=O)n1-c1ccc(N2CCOCC2=O)cc1
inhibition (Coagulation factor X [1]): 36%

O=C(NC[C@H]1CN(c2ccc(N3CCOCC3=O)cc2)C(=O)O1)c1ccc(Cl)s1
inhibition (Coagulation factor X [1]): Active

COc1ccc(-c2noc3ncn(-c4ccc(C(=O)Nc5ccccn5)cc4)c(=O)c23)cc1
2PT (Plasma): 3.37 µM | IC50 (Prothrombin): > 20000 nM | IC50 (Coagulation factor X [2]): 18 nM | Ratio IC50 (Homo sapiens [3]): > 1000 | inhibition (Coagulation factor X [1]): 89% | Ratio IC50 (Homo sapiens [4]): > 1000

COc1ccc(-c2noc3ncn(-c4ccc(N5CCOCC5=O)cc4)c(=O)c23)cc1
inhibition (Coagulation factor X [1]): 78%

COc1ccc(-c2noc3ncn(-c4ccc(C(=O)N(C)c5ccccc5)cc4)c(=O)c23)cc1
inhibition (Coagulation factor X [1]): 47%

CCc1nc2onc(-c3ccc(Cl)cc3)c2c(=O)n1-c1ccc(N2CCOCC2=O)cc1
inhibition (Coagulation factor X [1]): inactive

COc1ccc(-c2noc3ncn(-c4ccc(C(=O)N5CCOCC5)cc4)c(=O)c23)cc1
inhibition (Coagulation factor X [1]): 37%

Cc1nc2onc(-c3ccccc3)c2c(=O)n1-c1ccc(N2CCOCC2=O)cc1
inhibition (Coagulation factor X [1]): inactive

COc1ccc(-c2noc3ncn(-c4ccc(C(=O)N5CCCCC5)cc4)c(=O)c23)cc1
inhibition (Coagulation factor X [1]): 54%

COc1ccc(-c2noc3ncn(-c4ccc(C(=O)NC5CCCC5)cc4)c(=O)c23)cc1
inhibition (Coagulation factor X [1]): 75%

COc1ccc(-c2noc3nc(C)n(-c4ccc(N5CCOCC5=O)cc4)c(=O)c23)cc1
inhibition (Coagulation factor X [1]): 55%

CCc1nc2onc(-c3ccccc3)c2c(=O)n1-c1ccc(N2CCOCC2=O)cc1
inhibition (Coagulation factor X [1]): inactive

COc1ccc(-c2noc3ncn(-c4ccc(C(=O)NC5CCCCC5)cc4)c(=O)c23)cc1
inhibition (Coagulation factor X [1]): 72%

CCc1nc2onc(-c3ccc(C)cc3)c2c(=O)n1-c1ccc(N2CCOCC2=O)cc1
inhibition (Coagulation factor X [1]): inactive

O=C1COCCN1c1ccc(-n2cnc3onc(-c4ccc([N+](=O)[O-])cc4)c3c2=O)cc1
inhibition (Coagulation factor X [1]): inactive

COc1ccc(-c2noc3ncn(-c4ccc(N5CCOCC5=O)cc4)c(=O)c23)cc1OC
inhibition (Coagulation factor X [1]): 77%

CCCNC(=O)c1ccc(-n2cnc3onc(-c4ccc(OC)cc4)c3c2=O)cc1
inhibition (Coagulation factor X [1]): 83%

CCc1nc2onc(-c3ccc([N+](=O)[O-])cc3)c2c(=O)n1-c1ccc(N2CCOCC2=O)cc1
inhibition (Coagulation factor X [1]): inactive

COc1ccc(-c2noc3ncn(-c4ccc(C(=O)Nc5ccccc5)cc4)c(=O)c23)cc1
inhibition (Coagulation factor X [1]): 81%

CCc1nc2onc(-c3ccc(OC)c(OC)c3)c2c(=O)n1-c1ccc(N2CCOCC2=O)cc1
inhibition (Coagulation factor X [1]): 42%

O=C1COCCN1c1ccc(-n2cnc3onc(-c4ccccc4)c3c2=O)cc1
inhibition (Coagulation factor X [1]): 27%

COc1ccc(-c2noc3ncn(-c4ccc(C(=O)N5CCCC5)cc4)c(=O)c23)cc1
inhibition (Coagulation factor X [1]): 46%

Cc1ccc(-c2noc3ncn(-c4ccc(N5CCOCC5=O)cc4)c(=O)c23)cc1
inhibition (Coagulation factor X [1]): 43%

Cc1nc2onc(-c3ccc([N+](=O)[O-])cc3)c2c(=O)n1-c1ccc(N2CCOCC2=O)cc1
inhibition (Coagulation factor X [1]): inactive

CCN(CC)C(=O)c1ccc(-n2cnc3onc(-c4ccc(OC)cc4)c3c2=O)cc1
inhibition (Coagulation factor X [1]): 83%

Cc1ccc(-c2noc3nc(C)n(-c4ccc(N5CCOCC5=O)cc4)c(=O)c23)cc1
inhibition (Coagulation factor X [1]): inactive

COc1ccc(-c2noc3nc(C)n(-c4ccc(N5CCOCC5=O)cc4)c(=O)c23)cc1OC
inhibition (Coagulation factor X [1]): 47%

COc1cc(-c2noc3ncn(-c4ccc(N5CCOCC5=O)cc4)c(=O)c23)ccc1OC(C)=O
2PT (Plasma): 2.12 µM | IC50 (Prothrombin): > 20000 nM | IC50 (Coagulation factor X [2]): 13 nM | Ratio IC50 (Homo sapiens [3]): > 1000 | inhibition (Coagulation factor X [1]): 98% | Ratio IC50 (Homo sapiens [4]): > 1000

Source: ChEMBL document CHEMBL3396976, “Design, synthesis and evaluation of isoxazolo[5,4-d]pyrimidin-4(5H)-one derivatives as antithrombotic agents” (Bioorg Med Chem Lett, 2015)
